Test results reported in patent US5872126A, “Methods and compositions for treating preterm labor” (priority 1997, dated 1999).
Several values for one entry are separate records, joined by “and”; a condition that tells them apart may be missing. Identical values can stand only once.

Assays:
[1] = test system: parturition in mice homozygous for genetic null mutations of type 1 5α-reductase; conditions: mice homozygous for type 1 5α-reductase null mutations; cited from earlier work
[2] = test system: parturition in pregnant rats; conditions: oral dose 10 mg/kg on GD 21; rats treated with 200 mg/kg progesterone subcutaneously; cited from earlier work
[3] = test system: parturition in the rat; test: Parturition with test compound and progesterone antagonist RU-486 (Example 3); format: in vivo, Sprague-Dawley rat; conditions: RU-486 10 mg/kg on GD 21 (Group 2)
Experimental: In order to determine if the effects in the experiments conducted in Examples 1 and 2 were due to decreased progesterone catabolism associated with inhibition of 5α-reductase by the 5α-reductase type 1 inhibitor 3-oxo-4-aza-4,7β-dimethyl-16β-(4-chlorophenoxy)-5α-androstane ("test compound"), the following study was performed with the 5α-reductase inhibitor 3-oxo-4-aza-4,7β-dimethyl-16β-(4-chlorophenoxy)-5α-androstane and the progesterone antagonist RU-486.
Fifty-six pregnant female Sprague-Dawley rats (Charles River Laboratories, Raleigh, N.C.), approximately 10.5 weeks old weighing from 212 to 319 grams were employed in the study. They were fed and housed as described in EXAMPLE 1. The females were assigned to the following groups based on a weight independent random allocation scheme:
Control (Control article)
test compound @ 20 mg/kg/day
A dose of 10 mg/kg off RU-486 was selected based on the studies of Abdellilah et al., Progesterone and Mifepristone modify principally the response of circular myometrium to oxytocin in preparturient rats: comparison with response to acetylcholine and to calcium J. Pharmacol. and Exp. Therp.
The drugs were administered by oral gavage. The control article and vehicle consisted of 0.5% methylcellulose in deionized water with 0.02% sodium lauryl sulfate (SLS) and were prepared on a weekly basis and refrigerated when not in use. The test compound formulation (4 mg/mL, in vehicle) was prepared on a weekly basis and was refrigerated when not in use. The RU-486 formulation (2 mg base compound/mL, in 0.5% methylcellulose in deionized water) was prepared on a daily basis.

[4] = cited from earlier work; for side effects: human, in vivo
[5] = target: T1, rat type 1 5α-reductase (Rattus norvegicus, UniProt P24008); test: 5α-reductase assay, COS cell expressed rat type 1; format: biochemical; conditions: recombinant rat type 1; read-out: IC50 finasteride
T1 construct: made in house; host or cells: COS cells
T1 sequence (P24008 1-259): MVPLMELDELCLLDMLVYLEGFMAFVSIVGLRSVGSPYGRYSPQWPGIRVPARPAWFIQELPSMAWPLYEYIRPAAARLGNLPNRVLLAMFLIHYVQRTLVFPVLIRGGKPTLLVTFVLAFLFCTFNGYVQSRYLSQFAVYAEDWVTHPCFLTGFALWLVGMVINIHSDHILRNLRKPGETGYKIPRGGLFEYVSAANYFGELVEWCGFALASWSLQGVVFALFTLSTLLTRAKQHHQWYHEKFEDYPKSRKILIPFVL
Experimental: (§1) Rat placenta was obtained from Bioproducts for Science. The tissue was homogenized in 10 volumes of buffer containing 0.25 sucrose, 40 mM potassium phosphate pH 6.5, 5 mM magnesium sulfate, 25 mM potassium chloride, 1 mM phenylmethylsulfonyl fluoride, and 1 mM dithiothreitol using a Potter Elverhjem homogenizer. The homogenate was centrifuged at 100,000×g for 60 minutes at 4° C. The pellet was resuspended in 1.5 volumes of buffer. Glycerol was added to the resuspended pellet to a final concentration of 20%. COS cell expressed rat 5α-reductase was used as the source of type 1 and type 2 in these studies for comparison.
(§2) All samples in the enzyme assay were tested in a reaction mixture containing 33 mM succinic acid, 44 mM imidazole, 33 mM diethanolamine (SID), pH 5.5 and pH 7.5, 0.5 μM [7-^3 H]-testosterone (specific activity approximately 20-30 Ci/mmol), 1.5 μM unlabeled testosterone, 1 mM DTT and […] NADPH in a final volume of […]. The assay was initiated by the addition of enzyme and incubated at 37° C. for 15 min.

[6] = target: T2, rat type 2 5α-reductase (Rattus norvegicus, UniProt P31214); test: 5α-reductase assay, COS cell expressed rat type 2; format: biochemical; conditions: read-out: IC50 finasteride
T2 construct: made in house; host or cells: COS cells
T2 sequence (P31214 1-254): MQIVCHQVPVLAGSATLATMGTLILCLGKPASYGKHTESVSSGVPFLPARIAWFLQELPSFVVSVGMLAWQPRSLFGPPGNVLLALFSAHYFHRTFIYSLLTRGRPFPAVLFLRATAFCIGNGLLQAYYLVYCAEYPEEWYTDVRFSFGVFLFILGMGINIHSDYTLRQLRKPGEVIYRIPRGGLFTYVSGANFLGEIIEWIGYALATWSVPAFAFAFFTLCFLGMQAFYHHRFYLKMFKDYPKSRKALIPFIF
Experimental: as §1, §2

[7] = test system: human type 2 enzyme; conditions: cited from earlier work
[8] = target: T3, 5α-reductase in rat placenta (Rattus norvegicus, UniProt P24008); test: 5α-reductase assay, rat placenta microsomes; format: biochemical; conditions: read-out: IC50 finasteride
T3 construct: microsomes prepared from rat placenta; tissue Bioproducts for Science; host or cells: rat placenta (microsomes, 100,000×g pellet of homogenate)
T3 sequence (P24008 1-259): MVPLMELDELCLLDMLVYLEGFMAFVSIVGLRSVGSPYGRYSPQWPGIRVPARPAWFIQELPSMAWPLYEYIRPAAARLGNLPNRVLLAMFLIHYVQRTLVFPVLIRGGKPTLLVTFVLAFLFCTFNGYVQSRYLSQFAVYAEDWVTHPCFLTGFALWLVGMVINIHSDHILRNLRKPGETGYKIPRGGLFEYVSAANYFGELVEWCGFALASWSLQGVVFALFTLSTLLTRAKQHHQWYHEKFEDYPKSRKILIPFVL
Experimental: (§3) The 5α-reductase content of microsomes prepared from rat placenta was determined.
as §1, §2

[9] = test system: pregnancy and myometrial contractile activity in the rat; conditions: exogenous progesterone; cited from earlier work
[10] = substrate: C[C@]12CC[C@H]3[C@@H](CCC4=CC(=O)CC[C@@]43C)[C@@H]1CC[C@@H]2O; test: 5α-reductase assay, COS cell expressed rat type 2; format: biochemical; conditions: other: rat type 2; 37.0 °C
Experimental: as §1, §2

[11] = substrate: C[C@]12CC[C@H]3[C@@H](CCC4=CC(=O)CC[C@@]43C)[C@@H]1CC[C@@H]2O; test: 5α-reductase assay, rat placenta microsomes; format: biochemical; conditions: other: rat placenta microsomes; 37.0 °C
Experimental: as §3, §1, §2

[12] = substrate: C[C@]12CC[C@H]3[C@@H](CCC4=CC(=O)CC[C@@]43C)[C@@H]1CC[C@@H]2O; test: 5α-reductase assay, COS cell expressed rat type 1; format: biochemical; conditions: other: recombinant rat type 1; 37.0 °C
Experimental: as §1, §2

## C[C@]12CC[C@@H](O)C[C@@H]1CC[C@@H]1[C@@H]2CC[C@]2(C)[C@@H](O)CC[C@@H]12 [Example 3α-Adiol, 5α-androstan-3α,17β-diol]
[1]
  mice in which parturition was induced: 93%

## CC#C[C@]1(O)CC[C@H]2[C@@H]3CCC4=CC(=O)CCC4=C3[C@@H](c3ccc(N(C)C)cc3)C[C@@]21C [RU-486, reference compound]
[2]
  induction of parturition: able to induce parturition
[3]; only females completing delivery, 10 mg/kg
  Mean Length of Gestation ± SD: 22.3 days and 22.3 ± 0.4 days
[3]; delivery day GD 22.0
  number of females completing parturition: 7
[3]; delivery day GD 22.5
  number of females completing parturition: 5
[3]; delivery day GD 23.0
  number of females completing parturition: 2
[1]
  mice in which parturition was induced: 100%

## CCO [ethanol]
[4]; compared with ritodrine
  effectiveness in preventing premature labor: as effective as ritodrine in preventing premature labor
  reduction in the incidence of fetal respiratory distress: does not produce a corresponding reduction in the incidence of fetal respiratory distress

## CC(C)(C)NC(=O)[C@H]1CC[C@H]2[C@@H]3CC[C@H]4NC(=O)C=C[C@]4(C)[C@H]3CC[C@]12C [finasteride, 17β-(N-tert-butylcarbamoyl)-3-oxo-4-aza-5α-androst-1-en-3-one]
[5]
  IC50: 13 nM
[6]
  IC50: 1 nM
[7]
  inhibition of the human type 2 enzyme: potent inhibitor
[8]
  IC50: 11 nM

## O=S(=O)([O-])[O-].[Mg+2] [magnesium sulfate]
[4]; above 4 to 8 mg/dL
  adverse effects at plasma concentrations above the therapeutic range: inhibition of cardiac conduction and neuromuscular transmission, respiratory depression and cardiac arrest

## CC(=O)[C@H]1CC[C@H]2[C@@H]3CCC4=CC(=O)CC[C@]4(C)[C@H]3CC[C@]12C [progesterone]
[9]
  effect on pregnancy and myometrial contractile activity: prolong pregnancy and impair myometrial contractile activity

## CC(NCCc1ccc(O)cc1)C(O)c1ccc(O)cc1 (stereo not drawn) [ritodrine]
[4]
  side effects: tachycardia, increased renin secretion, hyperglycemia (and reactive hypoglycemia in the infant)

## CC(C)(C)NCC(O)c1ccc(O)c(CO)c1 (stereo not drawn) [salbutamol]
[4]
  side effects: side effects similar to those of ritodrine

## CC(C)(C)NCC(O)c1cc(O)cc(O)c1 (stereo not drawn) [terbutaline]
[4]
  side effects: side effects similar to those of ritodrine

B1: rat type 2 5α-reductase (Rattus norvegicus) (protein)
chain: MQIVCHQVPVLAGSATLATMGTLILCLGKPASYGKHTESVSSGVPFLPARIAWFLQELPSFVVSVGMLAWQPRSLFGPPGNVLLALFSAHYFHRTFIYSLLTRGRPFPAVLFLRATAFCIGNGLLQAYYLVYCAEYPEEWYTDVRFSFGVFLFILGMGINIHSDYTLRQLRKPGEVIYRIPRGGLFTYVSGANFLGEIIEWIGYALATWSVPAFAFAFFTLCFLGMQAFYHHRFYLKMFKDYPKSRKALIPFIF
notes: made in house; host or cells: COS cells
[10]
  Km: 0.15 µM

B2: 5α-reductase in rat placenta (Rattus norvegicus) (protein)
chain: MVPLMELDELCLLDMLVYLEGFMAFVSIVGLRSVGSPYGRYSPQWPGIRVPARPAWFIQELPSMAWPLYEYIRPAAARLGNLPNRVLLAMFLIHYVQRTLVFPVLIRGGKPTLLVTFVLAFLFCTFNGYVQSRYLSQFAVYAEDWVTHPCFLTGFALWLVGMVINIHSDHILRNLRKPGETGYKIPRGGLFEYVSAANYFGELVEWCGFALASWSLQGVVFALFTLSTLLTRAKQHHQWYHEKFEDYPKSRKILIPFVL
notes: microsomes prepared from rat placenta; tissue Bioproducts for Science; host or cells: rat placenta (microsomes, 100,000×g pellet of homogenate)
[11]
  Km: 5.2 µM

B3: rat type 1 5α-reductase (Rattus norvegicus) (protein)
chain: MVPLMELDELCLLDMLVYLEGFMAFVSIVGLRSVGSPYGRYSPQWPGIRVPARPAWFIQELPSMAWPLYEYIRPAAARLGNLPNRVLLAMFLIHYVQRTLVFPVLIRGGKPTLLVTFVLAFLFCTFNGYVQSRYLSQFAVYAEDWVTHPCFLTGFALWLVGMVINIHSDHILRNLRKPGETGYKIPRGGLFEYVSAANYFGELVEWCGFALASWSLQGVVFALFTLSTLLTRAKQHHQWYHEKFEDYPKSRKILIPFVL
notes: as for B1
[12]
  Km: 1.7 µM
